No end group written: not given here.

Assay [1] has as its system DR5 / ERGIC53 / giantin in HCT116 cells. As to the kind of experiment: Immunofluorescence co-localization (Pearson's correlation per cell). Format: cell-based, Homo sapiens. The note with it: Mean ± SEM. On the procedure:
HCT116 were seeded at 25000 cells per well in an 8-well glass-bottom μSlide (Ibidi 80827) pre-coated with Collagen IV (Sigma-Aldrich C6745, 0.03 mg/ml in PBS incubated for 30 min at RT, and then rinsed off with PBS x 3) in growth media 18 hr prior to transfection (see above for protocol). 24 hr post-transfection, the cells were fixed using 4% paraformaldehyde (PFA, Electron Microscopy Sciences) or methanol, depending on the antibody combination used for immunostaining (see table below). Samples were protected from light after fixation to preserve GFP fluorescence.
For fixation with 4% PFA, 32% PFA was added directly to the well in growth media for a 1:8 dilution and incubated for 10–15 min at RT. Cells were then permeabilized with PHEM buffer (60 mM PIPES, 25 mM HEPES, 10 mM EGTA, 2 mM MgCl2-hexahydrate, pH 6.9) containing 0.1% Triton-X100 for 10 min at RT for three washes.
For fixation with methanol, media was removed and cells were washed with cold PBS. Then methanol (pre-cooled at −20°C) was added to the well and incubated at −20°C for 3–4 min. The methanol was promptly aspirated and replaced with PHEM buffer (without Triton X-100), followed by two more 10 min washes with PHEM at RT.
To block against non-specific antibody interactions, cells were rinsed in PHEM (without 0.1% Triton X-100) and then incubated with PHEM containing 2% normal goat serum (Jackson Immunoresearch Laboratories, 005-000-121) for 1 hr at RT. Primary antibodies were incubated in blocking solution overnight at 4°C at the dilution noted in the table above. Cells were then washed with PHEM buffer for 10 min at RT x three and incubated with secondary antibodies, anti-mouse-AlexaFluor546 (Invitrogen A11030) and anti-rabbit-AlexaFluor633 (Invitrogen A21071), diluted 1:1000 in PHEM with 2% normal goat serum. (Secondary antibody solutions were centrifuged at 15000xg for 20 mins at 4°C to remove aggregates prior to incubating with cell samples.) After a 1 hr incubation at RT, cells were washed with PHEM buffer once, then incubated with PHEM buffer containing nuclear stain (DAPI, Molecular Probes, Eugene, OR, D-1306, 5 μg/mL), and finally rinsed with PHEM buffer twice before imaging.
Samples were imaged on a spinning disk confocal with Yokogawa CSUX A1 scan head, Andor iXon EMCCD camera, and 40x Plan Apo air Objective NA 0.95 or 100x ApoTIRF objective NA 1.49 (Nikon).
From the 405 nm channel, cell nuclei were identified as primary objects using maximum correlation thresholding (MCT) and shape to distinguish clumped objects. Secondary objects were outlined using propagation from the nuclei (DAPI) after applying MCT from the 488 nm, 561 nm, and 633 nm channels. Tertiary objects for each cell was identified as the mask of each nucleus subtracted from the mask of its corresponding secondary object in each channel, yielding masks for intracellular GFP-tagged protein from the 488 nm channel, for intracellular DR5 from the 561 nm channel, and for the organelle marker in the 633 nm channel. For overlap between DR5 and MPZ/RHO-GFP, Pearson’s correlation coefficients were calculated within the MPZ/RHO mask for each cell to filter out untransfected cells. For overlap between DR5/MPZ and organelle markers, Pearson’s correlation coefficients were calculated within tertiary objects for the organelle marker in GFP+ cells. Statistical analyses for all data sets were performed using GraphPad Prism 6.0.

The test system of assay [2] is HCT116 cells. Nature of the assay: Annexin V (and SytoxBlue) flow cytometry for apoptosis. The note with it: transfected 24 hr; no z-VAD. Format: cell-based, Homo sapiens. On the procedure: Cells seeded in a 6-well plate were transfected with the specified plasmid for 24 hr and harvested via trypsinization in complete media to allow a 30 min recovery at 37°C. The samples were then centrifuged at 500xg for 5 min and resuspended In 150 μl of a 1:20 dilution of Annexin V-AlexaFluor 647 conjugate (Thermo Scientific #A23204). Samples were transferred to a 96-well U-bottom plate and incubated in the dark for 15 min at RT. The distribution of apoptotic cells was determined by flow cytometry on a BD LSR II.

The target of assay [3] is T1, DR5L ECD (Homo sapiens, UniProt O14763).
T1 construct: Gp67 (glycoprotein) signal peptide (N); made in house; host or cells: SF21 insect cells (baculovirus, Bac-to-Bac)
T1 sequence (O14763 72-213): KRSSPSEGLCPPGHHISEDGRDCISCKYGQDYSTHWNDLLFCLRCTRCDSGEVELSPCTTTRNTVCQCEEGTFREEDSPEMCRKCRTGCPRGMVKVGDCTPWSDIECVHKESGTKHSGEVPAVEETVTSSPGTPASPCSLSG
Nature of the assay: Size exclusion chromatography of DR5 ECD and peptide complex. The assay is classed as biochemical. The note with it: 25 μM DR5L ECD; 100 μM fluorescein-conjugated peptide; overnight 4°C. On the procedure: The specified concentration of protein and peptide were incubated overnight at 4°C. The following day, 200 ul of each sample was loaded onto a SuperDex200 10/300 GL column equilibrated with 30 mM HEPES pH 7.2, 150 mM NaCl at a flow rate of 0.5 ml/min. Fractions were collected in 1 ml aliquots.
For subsequent analysis of each fraction by SDS-PAGE, 1 ml fractions were concentrated to 50 μl using a 3 kDa MW cutoff and loaded onto a gel. The fluorescein-labeled peptide was visualized using the fluorescence detection mode on a Typhoon 9400 Variable Mode Imager (GE Healthcare). Protein was visualized by staining with Coomassie.
(In general: Size exclusion chromatography separates by hydrodynamic size, large species first.)

Assay [4] has as its target T1, DR5L ECD. As to the kind of experiment: Fluorescence quenching of AlexaFluor647-DR5L ECD. Format: binding. How it is done:
The pFastBac HTB constructs were recombined into bacmid DNA using the Bac-to-Bac baculovirus expression system according to manufacturer’s protocols (Life Technologies).
Recombinant DR5 and TNFR1 ECD were labeled with AlexaFluor647 NHS Ester (Succinimidyl Ester) (Life Technologies # A37573) in a 3:1 dye:protein molar ratio in 30 mM HEPES pH 7.2, 150 mM NaCl, 1% DMF overnight at 4°C protected from light. The labeled proteins were re-loaded onto a SuperDex200 10/300 GL column to remove the excess dye, yielding labeling efficiencies of 59% and 49% for DR5 ECD and TNFR1 ECD, respectively. […]
To set up reactions, the unlabeled peptide titration (10 μl each) was made from a two-fold dilution series of the highest peptide concentration assayed. […] Samples were incubated for 30 min at RT protected from light before measuring fluorescence.
Samples were then loaded by capillary action onto premium capillaries (Nanotemper Technologies, cat. #MO-K025). Fluorescence was measured on a Monolith NT.115 Instrument (NanoTemper Technologies, Germany) using the capillary scan function at 25°C.
The half-maximum binding constant (K1/2) and Hill coefficient were determined by fitting the data points on Prism 6.0 to the model equation: Y = Bmax*X^h/(K1/2^h + X^h), where Y is the % quenching, X is the concentration of peptide, Bmax is the maximum % quenching, and h is the Hill slope.

The mark [5] stands for this setting: HCT116, 24 hr post-transfection.

As for “FTWREQPEGGRDAISIFHEA [MPZ-ecto peptide^Tyr→Glu-eGFP, expressed GFP-tagged construct with Tyr → Glu mutations in the MPZ-ecto peptide]”, in assay [1] (setting [5]), the “Pearson's correlation per cell of GFP-tagged peptide with DR5” value is reported as 0.15 ± 0.03 and the “Pearson's correlation per cell of GFP-tagged peptide with ERGIC” value came to 0.22 ± 0.05. Further, the “Pearson's correlation per cell between DR5 and ERGIC” value in assay [1] (HCT116 expressing GFP-tagged peptide, 24 hr) turned out to be 0.44 ± 0.04. In assay [2], the “Annexin V +, Sytox Blue + cells” value is listed as 5.66% of cells; the “Annexin V +, Sytox Blue - cells” value is reported as 3.64% of cells; the “Annexin V -, Sytox Blue - cells” value is on record as 90.3% of cells.
In the case of FTWREQPEGGRDAISIFHEA [MPZ-ecto^Tyr→Glu], the “co-elution / oligomerization of DR5 ECD by size exclusion” value in assay [3] is “did not co-migrate with or induce the oligomerization of DR5 ECD”. The “fluorescence quenching of AlexaFluor647-DR5L ECD” value in assay [4] (increasing peptide, 200 nM ECD, N = 3) is “quenching was not observed”.
In the case of FTWRYQPEGGRDAISIFHYA [MPZ-ecto], the Kd in assay [4] (AlexaFluor647-DR5L ECD 200 nM, 20 mM HEPES pH 7.2, 100 mM KOAc, 0.1% Tween-20, 30 min RT, read at 25°C, N = 3, ± SD, read-out: K1/2 (half-maximum binding constant, apparent binding affinity)) amounted to 109 ± 11 µM.

Values taken from article PMC7041945, “Misfolded proteins bind and activate death receptor 5 to trigger apoptosis during unresolved endoplasmic reticulum stress” (eLife, 2020).
